Measurements taken from patent publication US5214070A, “Diaryl ether cycloalkanes” (Imperial Chemical Industries PLC, priority 1989, dated 1993).
pIC50: −log10 of the molar value.

System: 5-LO
Experiment: Test b): A23187-challenged heparinised human blood, LTB4 radioimmunoassay
Type: cell-based
Details: A23187 challenge
Protocol: b) An in vitro assay system involving incubating a test compound with heparinised human blood, prior to challenge with the calcium ionophore A23187 and then indirectly measuring the inhibitory effects on 5-LO by assaying the amount of LTB4 using the specific radioimmunoassay described by Carey and Forder (F. Carey and R. A. Forder, Brit. J. Pharmacol. 1985, 84, 34P) which involves the use of a protein-LTB4 conjugate produced using the procedure of Young et alia (Prostaglandins, 1983, 26(4), 605-613). The effects of a test compound on the enzyme cyclooxygenase (which is involved in the alternative metabolic pathway for arachidonic acid and gives rise to prostaglandins, thromboxanes and related metabolites) may be measured at the same time using the specific radioimmunoassay for thromboxane B2 (TxB2) described by Carey and Forder (see above). This test provides an indication of the effects of a test compound against 5-LO and also cyclooxygenase in the presence of blood cells and proteins. It permits the selectivity of the inhibitory effect on 5-LO or cyclooxygenase to be assessed.

Structure (SMILES)	pIC50
CO[C@H]1CCC[C@@]1(OC)c1cc(F)cc(Sc2ccc3ccccc3c2)c1 (racemic) [(1RS,2SR)-1-[5-fluoro-3-(naphth-2-ylthio)phenyl]-1,2-dimethoxycyclopentane]	~6.70
C=CCO[C@@]1(c2cc(F)cc(Sc3ccc4ccccc4c3)c2)CCC[C@@H]1OC (racemic) [(1RS,2SR)-1-allyloxy-1-[5-fluoro-3-(naphth-2-ylthio)phenyl]-2-methoxycyclopentane]	~6.70
